Measured values reported in patent US9303261B2, “Composition for controlling chromogenesis including microRNA” (Amorepacific Corporation, priority 2011, dated 2016).

Tested on: tyrosinase mRNA
Assay: Tyrosinase mRNA expression by real-time PCR after transfection of WM115 cells with miR-125b inhibitor
Assay type: cell-based, human
Settings: melanoma cell line WM115, 75 uM transfected using liposome, about 60 hours, compared to Comparative Examples 1 and 2
Description: The present inventors used an inhibitor of […] to perform a loss-of-function study of miR-125b, in which the inhibitor of miR-125b is an oligonucleotide having a sequence complementary to that of miR-125b and can bind to miR-125b in cells to inhibit the function of the miR-125b.
75 uM of an inhibitor of miR-125b (model: IH-300595-05-0005, miRIDIAN Hairpin Inhibitor, Human hsa-miR-125b MIMAT0000423/MI0000446 (hsa-miR-125b), Dharmacon, Inc.; Example 2) was transfected into the melanoma cell line WM115 using liposome and allowed to move into the cells. […] After transfection, the cells were cultured in a 5% CO2 incubator at 37° C. for about 60 hours, and then RNA was isolated from the cells using 1 ml of Trizol reagent. Specifically, the cells were lysed using Trizol, and then centrifuged to remove the supernatant, and 0.35 ml of isopropanol was added to the residue to form nucleic acid pellets, which were then washed with 70% EtOH and dissolved in water to isolate RNA. About 1 ug of the RNA was made into cDNA using oligo dT and reverse transcriptase, and the cDNA was subjected to real-time PCR according to the TaqMan method (Applied Biosystems) using a primer (assay ID: Hs01099965_m1) specific to tyrosinase mRNA under the following conditions: reaction at 95° C. for 10 min; and then about 45 cycles of 10 sec at 95° C. and 1 min at 60° C. […]

Example 2: miRIDIAN Hairpin Inhibitor, Human hsa-miR-125b (IH-300595-05-0005, Dharmacon); oligonucleotide with sequence complementary to miR-125b
expression level of tyrosinase mRNA (normalized to GAPDH): significantly increased
